Assay results from the Kinase Knowledgebase extract (Sharma et al. 2016).

Molecular target: PIK3CA (human) (UniProt P42336)
Experiment: Inhibition of PIK3CA Kinase Activity

PIK3CA (human), sequence (P42336 whole entry, looked up): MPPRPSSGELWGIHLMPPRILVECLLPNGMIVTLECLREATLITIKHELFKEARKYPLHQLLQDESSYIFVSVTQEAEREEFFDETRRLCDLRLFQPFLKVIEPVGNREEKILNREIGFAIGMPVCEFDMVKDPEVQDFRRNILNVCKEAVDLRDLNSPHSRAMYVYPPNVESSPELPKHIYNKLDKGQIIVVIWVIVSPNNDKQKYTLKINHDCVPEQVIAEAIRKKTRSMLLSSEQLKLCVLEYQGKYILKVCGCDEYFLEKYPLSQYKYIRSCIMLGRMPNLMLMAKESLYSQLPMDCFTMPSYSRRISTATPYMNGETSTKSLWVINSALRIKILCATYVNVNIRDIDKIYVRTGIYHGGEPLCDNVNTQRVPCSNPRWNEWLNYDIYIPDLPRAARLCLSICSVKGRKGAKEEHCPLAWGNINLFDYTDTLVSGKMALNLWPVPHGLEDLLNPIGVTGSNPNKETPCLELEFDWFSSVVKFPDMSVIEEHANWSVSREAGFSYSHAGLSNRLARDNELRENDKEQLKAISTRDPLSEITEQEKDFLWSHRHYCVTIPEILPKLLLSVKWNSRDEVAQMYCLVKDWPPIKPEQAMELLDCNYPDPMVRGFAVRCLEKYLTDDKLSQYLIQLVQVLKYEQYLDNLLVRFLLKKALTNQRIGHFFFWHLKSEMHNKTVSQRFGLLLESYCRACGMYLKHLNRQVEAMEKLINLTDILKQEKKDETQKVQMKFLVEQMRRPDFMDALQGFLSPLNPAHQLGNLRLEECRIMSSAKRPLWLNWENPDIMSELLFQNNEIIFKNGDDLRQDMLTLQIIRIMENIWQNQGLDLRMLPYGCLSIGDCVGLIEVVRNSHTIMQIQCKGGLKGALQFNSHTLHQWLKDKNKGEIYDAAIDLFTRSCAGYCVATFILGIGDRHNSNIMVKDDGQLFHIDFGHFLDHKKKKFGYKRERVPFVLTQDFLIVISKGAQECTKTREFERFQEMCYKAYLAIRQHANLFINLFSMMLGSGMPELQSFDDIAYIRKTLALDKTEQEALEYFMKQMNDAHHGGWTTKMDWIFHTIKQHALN

Row | Structure (SMILES) | IC50 [µM]
1 | CC1CCC(n2cnc3c(-c4cnc(N)nc4)nc(N4CCOCC4)nc32)CC1 (stereo not drawn) | < 1
2 | O=[N+]([O-])c1cccc(Cn2cnc3c(-c4cccc(O)c4)nc(N4CCOCC4)nc32)c1 | < 1
3 | COCC(C)n1cnc2c(-c3cnc(N)nc3OC)nc(N3CCOCC3)nc21 (stereo not drawn) | < 1
4 | COC(=O)c1ccc(Cn2cnc3c(-c4cccc(O)c4)nc(N4CCOCC4)nc32)cc1 | < 1
5 | O=C(CCN1CCCCC1)Nc1ccc(Cn2cnc3c(-c4cccc(O)c4)nc(N4CCOCC4)nc32)cc1 | < 1
6 | Oc1cccc(-c2nc(N3CCOCC3)nc3[nH]c(-c4cccs4)nc23)c1 | < 1
7 | CCC(C)n1c(S(C)(=O)=O)nc2c(-c3cccc(O)c3)nc(N3CCOCC3)nc21 (stereo not drawn) | < 1
8 | Oc1cccc(-c2nc(N3CCOCC3)nc3c2ncn3Cc2ccccc2)c1 | < 1
9 | CCC(C)n1cnc2c(-c3cccc4[nH]ccc34)nc(N3CCOCC3)nc21 (stereo not drawn) | < 1
10 | CS(=O)(=O)Nc1ccc(Cn2cnc3c(-c4cccc(O)c4)nc(N4CCOCC4)nc32)cc1 | < 1
11 | OCc1cccc(-c2nc(N3CCOCC3)nc3c2ncn3Cc2ccccc2)c1 | < 1
12 | CC(C1CC1)n1cnc2c(-c3cccc4[nH]ccc34)nc(N3CCOCC3)nc21 (stereo not drawn) | < 1
13 | Oc1cccc(-c2nc(N3CCOCC3)nc3c2ncn3CCN2CCCC2)c1 | < 1
14 | CCC(C)n1c(NCCN(C)C)nc2c(-c3cccc(O)c3)nc(N3CCOCC3)nc21 (stereo not drawn) | < 1
15 | c1cc(-c2nc(N3CCOCC3)nc3c2ncn3CC2CCCCC2)c2cc[nH]c2c1 | < 1
16 | CC(=O)Nc1cccc(Cn2cnc3c(-c4cccc(O)c4)nc(N4CCOCC4)nc32)c1 | < 1
17 | CC(c1ccccc1)n1cnc2c(-c3cnc(N)nc3)nc(N3CCOCC3)nc21 (stereo not drawn) | < 1
18 | CCC(C)n1cnc2c(-c3cccc4[nH]ncc34)nc(N3CCOCC3)nc21 (stereo not drawn) | < 1
19 | COc1nc(N)ncc1-c1nc(N2CCOCC2)nc2c1ncn2C(C)C1CC1 (stereo not drawn) | < 1
20 | COCC(C)n1cnc2c(-c3cnc(N)nc3)nc(N3CCOCC3)nc21 (stereo not drawn) | < 1
21 | CCC(C)n1cnc2c(-c3cnc(NC)nc3)nc(N3CCOCC3)nc21 (stereo not drawn) | < 1

Row | Structure (SMILES) | IC50 [µM]
22 | Nc1ncc(-c2nc(N3CCOCC3)nc3c2ncn3C2CCc3ccccc3C2)cn1 (stereo not drawn) | < 1
23 | CC1CCC(n2cnc3c(-c4cccc(O)c4)nc(N4CCOCC4)nc32)CC1 (stereo not drawn) | < 1
24 | O=C(Cn1cnc2c(-c3cccc(O)c3)nc(N3CCOCC3)nc21)Nc1ccccc1 | < 1
25 | COCC(C)n1cnc2c(-c3cnc(N)nc3C)nc(N3CCOCC3)nc21 (stereo not drawn) | < 1
26 | c1ccc(Cn2cnc3c(-c4cncnc4)nc(N4CCOCC4)nc32)cc1 | < 1
27 | O=[N+]([O-])c1ccc(Cn2cnc3c(-c4cccc(O)c4)nc(N4CCOCC4)nc32)cc1 | < 1
28 | CC(=O)Nc1ccc(Cn2cnc3c(-c4cccc(O)c4)nc(N4CCOCC4)nc32)cc1 | < 1
29 | Cc1ccc(C(=O)N2CCC(n3cnc4c(-c5cccc6[nH]ccc56)nc(N5CCOCC5)nc43)CC2)s1 | < 1
30 | CC(C)(C)OC(=O)N1CCC(n2cnc3c(-c4cccc(O)c4)nc(N4CCOCC4)nc32)CC1 | < 1
31 | CCC(C)n1c(SC)nc2c(-c3cccc(O)c3)nc(N3CCOCC3)nc21 (stereo not drawn) | < 1
32 | Nc1ncc(-c2nc(N3CCOCC3)nc3c2ncn3C2CCOC2)cn1 (stereo not drawn) | < 1
33 | Oc1cc(F)cc(-c2nc(N3CCOCC3)nc3c2ncn3Cc2ccccc2)c1 | < 1
34 | CCC(C#N)n1cnc2c(-c3cccc4[nH]ccc34)nc(N3CCOCC3)nc21 (stereo not drawn) | < 1
35 | Oc1cccc(-c2nc(N3CCOCC3)nc3c2ncn3Cc2cc(F)cc(F)c2)c1 | < 1
36 | Nc1ncc(-c2nc(N3CCOCC3)nc3c2ncn3-c2ccccc2)cn1 | < 1
37 | Nc1ncc(-c2nc(N3CCOCC3)nc3c2ncn3C2CCCC2)cn1 | < 1
38 | CC(C)(C)CC(=O)N1CCC(n2cnc3c(-c4cccc5[nH]ccc45)nc(N4CCOCC4)nc32)CC1 | < 1
39 | O=C(Cn1cnc2c(-c3cccc(O)c3)nc(N3CCOCC3)nc21)NC1CC1 | < 1
40 | CCC(CC)n1cnc2c(-c3ccc(N)nc3)nc(N3CCOCC3)nc21 | < 1
41 | CC(C1CC1)n1cnc2c(-c3cccc(O)c3)nc(N3CCOCC3)nc21 (stereo not drawn) | < 1
42 | c1nc2cc(-c3nc(N4CCOCC4)nc4c3ncn4CC3CC3)ccc2[nH]1 | < 1

Row | Structure (SMILES) | IC50 [µM]
43 | Nc1cccc(Cn2cnc3c(-c4cccc(O)c4)nc(N4CCOCC4)nc32)c1 | < 1
44 | Cc1cccc(-n2cnc3c(-c4cnc(N)nc4)nc(N4CCOCC4)nc32)c1 | < 1
45 | c1cc(-c2nc(N3CCOCC3)nc3c2ncn3CC2CC2)c2cc[nH]c2c1 | < 1
46 | CC(C)C(C)n1cnc2c(-c3cccc4[nH]ccc34)nc(N3CCOCC3)nc21 (stereo not drawn) | < 1
47 | CN1CCN(C(=O)Cn2cnc3c(-c4cccc(O)c4)nc(N4CCOCC4)nc32)CC1 | < 1
48 | O=C(Cn1cnc2c(-c3cccc(O)c3)nc(N3CCOCC3)nc21)N1CCCC1 | < 1
49 | COCCn1cnc2c(-c3cccc4[nH]ccc34)nc(N3CCOCC3)nc21 | < 1
50 | Nc1ccc(Cn2cnc3c(-c4cccc(O)c4)nc(N4CCOCC4)nc32)cc1 | < 1
51 | CC(C)(C)OC(=O)N1CCC(n2cnc3c(-c4cccc5[nH]ccc45)nc(N4CCOCC4)nc32)C1 (stereo not drawn) | < 1
52 | CCC(C)n1c(N(C)C)nc2c(-c3cccc(O)c3)nc(N3CCOCC3)nc21 (stereo not drawn) | < 1
53 | CCNc1nc2c(-c3cccc(O)c3)nc(N3CCOCC3)nc2n1C(C)CC (stereo not drawn) | < 1
54 | CC(C)NC(=O)Cn1cnc2c(-c3cccc(O)c3)nc(N3CCOCC3)nc21 | < 1
55 | CCC(C)n1c(Br)nc2c(-c3cccc(O)c3)nc(N3CCOCC3)nc21 (stereo not drawn) | < 1
56 | c1cc(-c2nc(N3CCOCC3)nc3c2ncn3C2CCCC2)c2cc[nH]c2c1 | < 1
57 | CC(C)n1cnc2c(-c3cccc4[nH]ccc34)nc(N3CCOCC3)nc21 | < 1
58 | CCCCNc1nc2c(-c3cccc(O)c3)nc(N3CCOCC3)nc2n1C(C)CC (stereo not drawn) | < 1
59 | CCC(C)n1c(NC(C)C)nc2c(-c3cccc(O)c3)nc(N3CCOCC3)nc21 (stereo not drawn) | < 1
60 | CS(=O)(=O)N1CCN(C(=O)Cn2cnc3c(-c4cccc(O)c4)nc(N4CCOCC4)nc32)CC1 | < 1
61 | Nc1ncc(-c2nc(N3CCOCC3)nc3[nH]cnc23)cn1 | < 1
62 | CCC(C#N)n1cnc2c(-c3cnc(N)nc3)nc(N3CCOCC3)nc21 (stereo not drawn) | < 1

Further lines, results first:

Row | IC50 [µM] | Structure (SMILES)
63 | < 1 | COc1ccc(Cn2cnc3c(-c4cccc(O)c4)nc(N4CCOCC4)nc32)cc1
64 | < 1 | O=C(Cc1cccnc1)N1CCC(n2cnc3c(-c4cccc5[nH]ccc45)nc(N4CCOCC4)nc32)CC1
65 | < 1 | c1cc(-c2nc(N3CCOCC3)nc3c2ncn3C2CCNCC2)c2cc[nH]c2c1
66 | < 1 | CCC(C)n1c(N2CCCC2)nc2c(-c3cccc(O)c3)nc(N3CCOCC3)nc21 (stereo not drawn)
67 | < 1 | Nc1ncc(-c2nc(N3CCOCC3)nc3c2ncn3C2Cc3ccccc3C2)cn1
68 | < 1 | CCC(C)n1cnc2c(-c3cnc(N)nc3C)nc(N3CCOCC3)nc21 (stereo not drawn)
69 | < 1 | Cc1nc(N)ncc1-c1nc(N2CCOCC2)nc2c1ncn2C(C)C1CC1 (stereo not drawn)
70 | < 1 | CC(C)C(C)n1cnc2c(-c3cnc(N)nc3)nc(N3CCOCC3)nc21 (stereo not drawn)
71 | < 1 | Nc1ncc(-c2nc(N3CCOCC3)nc3c2ncn3Cc2c(F)cccc2F)cn1
72 | < 1 | CCC(C)n1cnc2c(-c3ccc(N)nc3)nc(N3CCOCC3)nc21 (stereo not drawn)
73 | < 1 | CCCCN1CCC(n2cnc3c(-c4cccc(O)c4)nc(N4CCOCC4)nc32)CC1
74 | < 1 | CCC(C)n1cnc2c(-c3cncnc3)nc(N3CCOCC3)nc21 (stereo not drawn)
75 | < 1 | CCSc1nc2c(-c3cccc(O)c3)nc(N3CCOCC3)nc2n1C(C)CC (stereo not drawn)
76 | < 1 | Nc1ncc(-c2nc(N3CCOCC3)nc3c2ncn3CC2CC2)cn1
77 | < 1 | COCC(C)n1cnc2c(-c3ccc(N)nc3)nc(N3CCOCC3)nc21 (stereo not drawn)
78 | < 1 | CC(C)(C)Cn1cnc2c(-c3cnc(N)nc3)nc(N3CCOCC3)nc21
79 | < 1 | CCC(C)n1cnc2c(-c3cccc(O)c3)nc(N3CCOCC3)nc21 (stereo not drawn)
80 | < 1 | Oc1cccc(-c2nc(N3CCOCC3)nc3c2ncn3CCOc2ccccc2)c1
81 | < 1 | c1cc(-c2nc(N3CCOCC3)nc3c2ncn3CCC2OCCCO2)c2cc[nH]c2c1
82 | < 1 | Oc1cccc(-c2nc(N3CCOCC3)nc3c2ncn3Cc2c(F)cccc2F)c1
83 | < 1 | CS(=O)(=O)N1CCN(CCn2cnc3c(-c4cccc(O)c4)nc(N4CCOCC4)nc32)CC1

Row | IC50 [µM] | Structure (SMILES)
84 | < 1 | N#Cc1cccc(Cn2cnc3c(-c4cccc(O)c4)nc(N4CCOCC4)nc32)c1
85 | < 1 | O=C(Cn1cnc2c(-c3cccc(O)c3)nc(N3CCOCC3)nc21)N1CCOCC1
86 | < 1 | COCC(C)n1cnc2c(-c3cccc(O)c3)nc(N3CCOCC3)nc21 (stereo not drawn)
87 | < 1 | Oc1cccc(-c2nc(N3CCOCC3)nc3c2ncn3C2CCCC2)c1
88 | < 1 | O=C(Nc1ccc(Cl)cc1)N1CCC(n2cnc3c(-c4cccc5[nH]ccc45)nc(N4CCOCC4)nc32)CC1
89 | < 1 | CCC(C)n1c(-c2ccccc2)nc2c(-c3cccc(O)c3)nc(N3CCOCC3)nc21 (stereo not drawn)
90 | < 1 | CC1CCC(n2cnc3c(-c4cnc(N)nc4)nc(N4CCOCC4)nc32)C1 (stereo not drawn)
91 | < 1 | COc1cccc(Cn2cnc3c(-c4cccc(O)c4)nc(N4CCOCC4)nc32)c1
92 | < 1 | CC(c1ccccc1)n1cnc2c(-c3cccc(O)c3)nc(N3CCOCC3)nc21 (stereo not drawn)
93 | < 1 | Cc1cccc(-n2cnc3c(-c4cccc(O)c4)nc(N4CCOCC4)nc32)c1
94 | < 1 | CC(C)Cn1cnc2c(-c3cccc4[nH]ccc34)nc(N3CCOCC3)nc21
95 | < 1 | N#CCn1cnc2c(-c3cccc(O)c3)nc(N3CCOCC3)nc21
96 | < 1 | C=CCCn1cnc2c(-c3cccc(O)c3)nc(N3CCOCC3)nc21
97 | < 1 | CCC(C)n1c(NCCOC)nc2c(-c3cccc(O)c3)nc(N3CCOCC3)nc21 (stereo not drawn)
98 | < 1 | Oc1cccc(-c2nc(N3CCOCC3)nc3c2ncn3C2CCOC2)c1 (stereo not drawn)
99 | < 1 | O=C(CCN1CCCCC1)N1CCC(n2cnc3c(-c4cccc5[nH]ccc45)nc(N4CCOCC4)nc32)CC1
100 | < 1 | Nc1ccc(-c2nc(N3CCOCC3)nc3c2ncn3Cc2cccc([N+](=O)[O-])c2)cn1
101 | < 1 | Oc1cccc(-c2nc(N3CCOCC3)nc3c2ncn3Cc2cccc(F)c2)c1
102 | < 1 | CCC(CC)n1cnc2c(-c3cnc(N)nc3)nc(N3CCOCC3)nc21
103 | < 1 | CS(=O)(=O)N1CCC(n2cnc3c(-c4cccc5[nH]ccc45)nc(N4CCOCC4)nc32)CC1
